According to paper PMC11882969 (Nature Communications, 2025):
“And” between values parts separate entries of the source, which are not always exact repeats. Equal entries are not always repeated.

How the values were obtained:
hCB1 [1] = molecular target: T1, hCB1 (Homo sapiens, UniProt P21554); assay: Lance Ultra cAMP accumulation assay, CHO cells; type: cell-based; set-up: expressed in transfected cells;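 note: human CB1R stably expressed in CHO cells, ligands co-incubated with forskolin at room temperature, read-out is lowering of forskolin-stimulated cAMP accumulation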
hCB1 [2] = molecular target: T1, hCB1; assay: bioSensAll ebBRET signaling profiling, hCB1; type: cell-based; set-up: host or cells: HEK293SL cells, transient PEI transfection; conditions: for Gi1 hCB1 response: Gi1 biosensor; for Gi1 hCB1 / GoB hCB1: single replicate values, FigS6a; for EC50: read-out: EC50 [95% CI]; for Emax: normalized to CP-55,940
CB1 (rCB1) = CB1 (rCB1) (Rattus norvegicus, UniProt P20272); assay: Radioligand competition binding, [3H]-CP-55,940, rat brain membranes
Chain of CB1 (rCB1) (P20272 whole entry): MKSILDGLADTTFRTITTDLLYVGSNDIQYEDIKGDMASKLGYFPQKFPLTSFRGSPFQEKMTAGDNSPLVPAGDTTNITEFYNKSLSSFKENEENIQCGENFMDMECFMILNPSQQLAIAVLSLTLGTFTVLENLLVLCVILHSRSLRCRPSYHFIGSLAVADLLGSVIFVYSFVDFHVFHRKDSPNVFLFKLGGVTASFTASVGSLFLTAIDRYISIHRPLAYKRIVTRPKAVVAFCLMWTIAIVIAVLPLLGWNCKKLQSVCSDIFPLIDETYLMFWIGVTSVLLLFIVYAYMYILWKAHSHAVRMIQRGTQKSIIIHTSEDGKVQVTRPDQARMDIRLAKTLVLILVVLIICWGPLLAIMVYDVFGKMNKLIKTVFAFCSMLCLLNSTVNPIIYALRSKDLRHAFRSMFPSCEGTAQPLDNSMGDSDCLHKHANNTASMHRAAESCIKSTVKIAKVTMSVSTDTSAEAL

T1 sequence (P21554 whole entry): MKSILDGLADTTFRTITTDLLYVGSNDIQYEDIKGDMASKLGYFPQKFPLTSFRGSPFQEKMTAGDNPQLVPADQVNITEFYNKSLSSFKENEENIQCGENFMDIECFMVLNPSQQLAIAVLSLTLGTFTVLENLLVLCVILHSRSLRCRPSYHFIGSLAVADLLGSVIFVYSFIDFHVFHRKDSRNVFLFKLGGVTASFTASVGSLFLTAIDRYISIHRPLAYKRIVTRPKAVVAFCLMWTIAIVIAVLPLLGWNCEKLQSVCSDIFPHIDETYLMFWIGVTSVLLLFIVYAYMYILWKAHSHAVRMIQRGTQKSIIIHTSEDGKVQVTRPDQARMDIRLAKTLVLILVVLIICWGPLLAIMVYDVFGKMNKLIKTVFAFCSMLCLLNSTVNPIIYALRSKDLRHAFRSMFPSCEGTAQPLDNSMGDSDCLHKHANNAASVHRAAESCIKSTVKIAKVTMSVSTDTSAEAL

With `COC(=O)[C@](C)(NC(=O)c1cc(C)n(-c2cccc(C(F)(F)F)c2)n1)c1cccs1` [‘8690] the EC50 (hCB1 [1]) was 473 nM, the “Lance Ultra cAMP pEC50” value (hCB1 [1]) was 6.3 [5.8 – 7.0] and the Emax (hCB1 [1]; CHO) was 53%. For the same compound, the “Gi1 hCB1 response” value (hCB1 [2]; Log [Compound] (M) -4.63927) was 107.576, the “Gi1 hCB1 response” value (hCB1 [2]; Log [Compound] (M) -5.05788) was 100.593 and the “Gi1 hCB1 response” value (hCB1 [2]; Log [Compound] (M) -5.47381) was 88.91. The “Gi1 hCB1 response” value (hCB1 [2]; Log [Compound] (M) -5.89285) was 68.8562, the “Gi1 hCB1 response” value (hCB1 [2]; Log [Compound] (M) -6.31878) was 81.5241 and the “Gi1 hCB1 response” value (hCB1 [2]; Log [Compound] (M) -6.72585) was 77.4731. For the same compound, the “Gi1 hCB1 response” value (hCB1 [2]; Log [Compound] (M) -7.14267) was 64.4023, the “Gi1 hCB1 response” value (hCB1 [2]; Log [Compound] (M) -7.55284) was 52.8535 and the “Gi1 hCB1 response” value (hCB1 [2]; Log [Compound] (M) -8) was 17.9832. For the same compound, the “Gi1 hCB1 response” value (hCB1 [2]; Log [Compound] (M) -8.22186) was 31.0987, the “Gi1 hCB1 response” value (hCB1 [2]; Log [Compound] (M) -8.39794) was 14.4917 and the “Gi1 hCB1 response” value (hCB1 [2]; Log [Compound] (M) -8.68787) was 15.566. For the same compound, the “Gi1 hCB1 response” value (hCB1 [2]; Log [Compound] (M) -9.15521) was 3.502, the “Gi1 hCB1 response” value (hCB1 [2]; Log [Compound] (M) -9.61989) was 4.487 and the “Gi1 hCB1 response” value (hCB1 [2]; Log [Compound] (M) -10.0969) was -7.576. The “Gi1 hCB1 response” value (hCB1 [2]; Log [Compound] (M) -10.5529) was -10.5308, the “Gi1 hCB1 response” value (hCB1 [2]; Log [Compound] (M) -11.0177) was -2.272 and the “Gi1 hCB1 response” value (hCB1 [2]; Log [Compound] (M) -11.4949) was -1.802. For the same compound, the “Gi1 hCB1 response” value (hCB1 [2]; Log [Compound] (M) -11.9208) was -1.466, the “Gi1 hCB1 response” value (hCB1 [2]; Log [Compound] (M) -12.3979) was 8.695 and the “Gi1 hCB1 response” value (hCB1 [2]; Log [Compound] (M) -12.8861) was 6.367. For the same compound, the “Gi1 hCB1 response” value (hCB1 [2]; Log [Compound] (M) -13, individual replicate values) was -3.951, the “Gi1 hCB1” value (hCB1 [2]; Log [Compound] (M) -4.22186) was 95.271 and 72.3781 and the “GoB hCB1” value (hCB1 [2]; Log [Compound] (M) -4.22186) was 82.2993 and 86.8881. The “Gi1 hCB1” value (hCB1 [2]; Log [Compound] (M) -4.63927) was 89.1198 and 73.8984, the “GoB hCB1” value (hCB1 [2]; Log [Compound] (M) -4.63927) was 85.86 and 78.0511 and the “Gi1 hCB1” value (hCB1 [2]; Log [Compound] (M) -5.05788) was 89.7364 and 64.618. The “GoB hCB1” value (hCB1 [2]; Log [Compound] (M) -5.05788) was 82.8568 and 73.8497, the “Gi1 hCB1” value (hCB1 [2]; Log [Compound] (M) -5.47381) was 86.2831 and 71.6021 and the “GoB hCB1” value (hCB1 [2]; Log [Compound] (M) -5.47381) was 95.4631 and 77.0615. For the same compound, the “Gi1 hCB1” value (hCB1 [2]; Log [Compound] (M) -5.89285) was 88.8731 and 77.0341, the “GoB hCB1” value (hCB1 [2]; Log [Compound] (M) -5.89285) was 89.4387 and 75.2907 and the “Gi1 hCB1” value (hCB1 [2]; Log [Compound] (M) -6.31878) was 83.354 and 71.8555. The “GoB hCB1” value (hCB1 [2]; Log [Compound] (M) -6.31878) was 83.9538 and 76.1935, the “Gi1 hCB1” value (hCB1 [2]; Log [Compound] (M) -6.72585) was 79.6848 and 68.7673 and the “GoB hCB1” value (hCB1 [2]; Log [Compound] (M) -6.72585) was 88.3597 and 69.9433. For the same compound, the “Gi1 hCB1” value (hCB1 [2]; Log [Compound] (M) -7.14267) was 72.1769 and 53.833, the “GoB hCB1” value (hCB1 [2]; Log [Compound] (M) -7.14267) was 73.7932 and 56.1409 and the “Gi1 hCB1” value (hCB1 [2]; Log [Compound] (M) -7.55284) was 51.6729 and 43.6499. For the same compound, the “GoB hCB1” value (hCB1 [2]; Log [Compound] (M) -7.55284) was 61.8702 and 41.6614, the “Gi1 hCB1” value (hCB1 [2]; Log [Compound] (M) -8) was 32.3713 and 22.1909 and the “GoB hCB1” value (hCB1 [2]; Log [Compound] (M) -8) was 32.3776 and 21.4874. The “Gi1 hCB1” value (hCB1 [2]; Log [Compound] (M) -8.22186) was 19.0514 and 17.5665, the “GoB hCB1” value (hCB1 [2]; Log [Compound] (M) -8.22186) was 16.1566 and 14.2824 and the “Gi1 hCB1” value (hCB1 [2]; Log [Compound] (M) -8.39794) was 17.4789 and 12.7996. The “GoB hCB1” value (hCB1 [2]; Log [Compound] (M) -8.39794) was 19.8252 and 10.1677, the “Gi1 hCB1” value (hCB1 [2]; Log [Compound] (M) -8.68787) was 7.998 and 0.7635 and the “GoB hCB1” value (hCB1 [2]; Log [Compound] (M) -8.68787) was 1.86 and 2.6849. The “Gi1 hCB1” value (hCB1 [2]; Log [Compound] (M) -9.15521) was 2.91 and 0.2884, the “GoB hCB1” value (hCB1 [2]; Log [Compound] (M) -9.15521) was 1.788 and -5.44 and the “Gi1 hCB1” value (hCB1 [2]; Log [Compound] (M) -9.61989) was 1.7386 and -5.445. For the same compound, the “GoB hCB1” value (hCB1 [2]; Log [Compound] (M) -9.61989) was -0.8737 and -6.308, the “Gi1 hCB1” value (hCB1 [2]; Log [Compound] (M) -10.0969) was 1.245 and -4.415 and the “GoB hCB1” value (hCB1 [2]; Log [Compound] (M) -10.0969) was -2.852 and -5.544. For the same compound, the “Gi1 hCB1” value (hCB1 [2]; Log [Compound] (M) -10.5529) was 0.9678 and -3.3699, the “GoB hCB1” value (hCB1 [2]; Log [Compound] (M) -10.5529) was -2.528 and -5.649 and the “Gi1 hCB1” value (hCB1 [2]; Log [Compound] (M) -11.0177) was 2.371 and -4.415. The “GoB hCB1” value (hCB1 [2]; Log [Compound] (M) -11.0177) was -2.294 and -7.871, the “Gi1 hCB1” value (hCB1 [2]; Log [Compound] (M) -11.4949) was -0.1731 and -5.27 and the “GoB hCB1” value (hCB1 [2]; Log [Compound] (M) -11.4949) was 0.583 and -6.36. For the same compound, the “Gi1 hCB1” value (hCB1 [2]; Log [Compound] (M) -11.9208) was 0.6903 and -3.196, the “GoB hCB1” value (hCB1 [2]; Log [Compound] (M) -11.9208) was 1.158 and -6.864 and the “Gi1 hCB1” value (hCB1 [2]; Log [Compound] (M) -12.3979) was 1.692 and -4.146. For the same compound, the “GoB hCB1” value (hCB1 [2]; Log [Compound] (M) -12.3979) was 3.838 and -6.76, the “Gi1 hCB1” value (hCB1 [2]; Log [Compound] (M) -12.8861) was 2.602 and -5.207 and the “GoB hCB1” value (hCB1 [2]; Log [Compound] (M) -12.8861) was -0.1004 and -5.944. For the same compound, the “Gi1 hCB1” value (hCB1 [2]; Log [Compound] (M) -13) was 1.677 and 3.693, the “GoB hCB1” value (hCB1 [2]; Log [Compound] (M) -13) was -0.7478 and -0.8395 and the “Gi1 hCB1” value (hCB1 [2]; Log [Compound] (M) cell empty) was -2.293. For the same compound, the “GoB hCB1” value (hCB1 [2]; Log [Compound] (M) cell empty) was -5.1625, the “pEC50 [95% CI]” value (hCB1 [2]; hCB1 Gi1) was 7.72 [7.6 – 7.8] and the “pEC50 [95% CI]” value (hCB1 [2]; hCB1 GoB) was 7.8 [7.7 – 7.9]. The “pEC50 [95% CI]” value (hCB1 [2]; hCB1 Gz) was 7.5 [6.9 – 7.8], the EC50 (hCB1 [2]; hCB1 GoB) was 18 nM and the EC50 (hCB1 [2]; hCB1 Gz) was 33 nM. For the same compound, the Emax (hCB1 [2]; read-out: Emax [95% CI], hCB1 Gi1) was 82%, the Emax (hCB1 [2]; read-out: Emax [95% CI], hCB1 GoB) was 83% and the Emax (hCB1 [2]; read-out: Emax [95% CI], hCB1 Gz) was 98%. For the same compound, the “pKi [95% CI]” value (CB1 (rCB1); rCB1) was 7.1 [6.9 – 7.3] and the Ki (CB1 (rCB1); read-out: Ki [95% CI], rCB1, [3H]-CP-55,940) was 90.2 nM.
